Results as given in US12227498B2, “Heterocyclic amine derivative and pharmaceutical composition comprising same” (Daewoong Pharmaceutical Co., Ltd., priority 2018, dated 2025).

Assays:
ITK = molecular target: T1, ITK (Homo sapiens, UniProt Q08881); assay: Inhibitory activity against ITK, ADP-Glo + ITK Kinase enzyme system kit (Promega); format: biochemical; details: ITK enzyme 0.4 ng/μl; 15 min preincubation at room temperature; 1 hour at 30° C.; luminescence; duplicate
T1 construct: purchased Promega Corporation
T1 sequence (Q08881 1-620): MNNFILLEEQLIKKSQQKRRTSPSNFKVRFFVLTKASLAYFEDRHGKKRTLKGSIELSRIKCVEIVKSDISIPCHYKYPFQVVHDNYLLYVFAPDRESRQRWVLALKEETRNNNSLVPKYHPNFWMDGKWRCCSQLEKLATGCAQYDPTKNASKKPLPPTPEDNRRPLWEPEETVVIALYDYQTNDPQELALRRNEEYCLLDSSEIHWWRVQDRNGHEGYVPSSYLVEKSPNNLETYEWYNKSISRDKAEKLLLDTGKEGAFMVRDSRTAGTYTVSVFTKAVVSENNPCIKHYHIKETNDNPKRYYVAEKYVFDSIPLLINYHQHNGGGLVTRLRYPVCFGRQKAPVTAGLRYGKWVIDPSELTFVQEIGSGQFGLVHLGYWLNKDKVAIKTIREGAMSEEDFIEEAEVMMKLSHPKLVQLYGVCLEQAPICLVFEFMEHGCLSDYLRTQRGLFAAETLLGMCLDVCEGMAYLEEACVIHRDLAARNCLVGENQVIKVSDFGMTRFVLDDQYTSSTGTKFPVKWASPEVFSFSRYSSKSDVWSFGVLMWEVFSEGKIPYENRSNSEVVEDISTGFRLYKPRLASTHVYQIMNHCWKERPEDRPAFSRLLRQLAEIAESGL
Experimental: (§1) Inhibitory activities against BTK and ITK were measured for the compounds prepared in the above Examples as follows.
The inhibitory activity against ITK was evaluated using ‘ADP-Glo™+ITK Kinase enzyme system’ kit (Promega Corporation). […] To the plate on which reactions were completed, 5 μl of substrate and 5 μl of ATP prepared so as to have a final concentration of […] were added and then allowed to react at 30° C. for 1 hour. All wells of the plate were treated with 25 μl of ADP-Glo™ reagent and then allowed to react at 30° C. for 40 minutes. After that, all wells were treated with 50 μl of kinase detection buffer, and then allowed to react at 30° C. for 30 minutes under light shielding conditions. For the plate on which all reactions were completed, luminescence was measured and the results were calculated. Evaluation was carried out in duplicate, and negative control and positive control were calculated depending on whether or not the enzyme was added without treatment of the compound. The IC50 was calculated based on the calculated values.

BTK = molecular target: T2, BTK (Homo sapiens, UniProt Q06187); assay: Inhibitory activity against BTK, ADP-Glo + BTK Kinase enzyme system kit (Promega); format: biochemical; details: BTK enzyme 1 ng/μl; ATP 10 µM; 15 min preincubation at room temperature; 1 hour at 30° C.; luminescence; duplicate
T2 construct: purchased Promega Corporation
Experimental: as §1
The inhibitory activities against BTK were evaluated using ‘ADP-Glo™+BTK Kinase enzyme system’ kit (Promega Corporation). […] 5 μl of substrate and 5 μl of ATP prepared so as to have a final concentration of 10 µM were added to the plate on which reactions were completed, and then allowed to react at 30° C. for 1 hour. All wells of the plate were treated with 25 μl of ADP-Glo™ reagent and allowed to react at 30° C. for 40 minutes. After that, all wells were treated with 50 μl of kinase detection buffer, and then reacted at 30° C. for 30 minutes under light shielding conditions. For the plate on which all reactions were completed, luminescence was measured and the results were calculated. Evaluation was carried out in duplicate, and negative control and positive control were calculated depending on whether or not the enzyme was added without treatment of the compound. The IC50 was calculated based on the calculated values.

T2 sequence (Q06187 whole entry): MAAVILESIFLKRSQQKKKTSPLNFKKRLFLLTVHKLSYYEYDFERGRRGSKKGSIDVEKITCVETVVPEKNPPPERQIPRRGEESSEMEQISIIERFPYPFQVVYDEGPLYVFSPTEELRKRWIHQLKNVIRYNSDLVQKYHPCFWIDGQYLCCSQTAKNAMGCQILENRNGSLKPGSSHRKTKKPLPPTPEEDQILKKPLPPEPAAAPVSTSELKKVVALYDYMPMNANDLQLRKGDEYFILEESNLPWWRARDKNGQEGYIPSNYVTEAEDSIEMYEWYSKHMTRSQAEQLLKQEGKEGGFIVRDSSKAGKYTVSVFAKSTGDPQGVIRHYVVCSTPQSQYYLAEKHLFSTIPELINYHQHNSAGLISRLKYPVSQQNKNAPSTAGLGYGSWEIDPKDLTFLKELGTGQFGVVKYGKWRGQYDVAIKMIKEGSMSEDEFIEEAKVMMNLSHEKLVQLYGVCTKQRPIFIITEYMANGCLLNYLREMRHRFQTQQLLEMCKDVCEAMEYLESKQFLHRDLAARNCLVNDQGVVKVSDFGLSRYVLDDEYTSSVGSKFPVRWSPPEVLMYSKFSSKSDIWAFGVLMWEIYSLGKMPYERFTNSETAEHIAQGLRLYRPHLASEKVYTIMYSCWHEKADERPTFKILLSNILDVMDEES

C=CC(=O)N1CCC[C@H](Nc2cc(CN3CCOCC3)cc(Nc3ccccn3)n2)C1 [Example 53, (S)-1-(3-(4-(morpholinomethyl)-6-(pyridin-2-ylamino)pyridin-2-ylamino)piperidin-1-yl) prop-2-en-1-one]
IC50 (ITK): 42.8 nM
IC50 (BTK): 7.7 nM

C=CC(=O)N1CCC(Nc2cc(CN3CCOCC3)nc(Nc3ncc(C)s3)n2)C1 (stereo not shown) [Example 8, 1-(3-((2-((5-methylthiazol-2-yl)amino)-6-(morpholinomethyl)pyrimidin-4-yl)amino)pyrrolidin-1-yl) prop-2-en-1-one]
IC50 (ITK): 71.7 nM
IC50 (BTK): 72.5 nM

C=CC(=O)N1CCC[C@H](Nc2cc(Cc3cccnc3)cc(Nc3ncc(C)s3)n2)C1 [Example 36, (S)-1-(3-((6-((5-methylthiazol-2-yl)amino)-4-(pyridin-3-ylmethyl)pyridin-2-yl)amino)piperidin-1-yl) prop-2-en-1-one]
IC50 (ITK): 1.8 nM
IC50 (BTK): 3.9 nM

Cc1cc(CN2CCOCC2)cc(Nc2ncc(C)s2)n1 [Example 44, 5-methyl-N-(6-methyl-4-(morpholinomethyl)pyridin-2-yl) thiazol-2-amine]
IC50 (ITK): ~1000 nM
IC50 (BTK): > 1000 nM

C=CC(=O)N1CCC[C@H](Nc2cc(CN3CCOCC3)cc(Nc3ncc(C)s3)n2)C1 [Example 5, (S)-1-(3-((6-((5-methylthiazol-2-yl)amino)-4-(morpholinomethyl)pyridin-2-yl)amino)piperidin-1-yl) prop-2-en-1-one]
IC50 (ITK): > 200 nM
IC50 (BTK): 152 nM

C=CC(=O)N1CCC[C@H](Nc2cc(C)cc(Nc3ncc(C)s3)n2)C1 [Example 35, (S)-1-(3-((4-methyl-6-((5-methylthiazol-2-yl)amino)pyridin-2-yl)amino)piperidin-1-yl) prop-2-en-1-one]
IC50 (ITK): 13.4 nM
IC50 (BTK): 2.1 nM

C=CC(=O)N1CCC[C@@H](Nc2nc(CN3CCOCC3)cc(Nc3ncc(C)s3)n2)C1 [Example 25, (R)-1-(3-((4-((5-methylthiazol-2-yl)amino)-6-(morpholinomethyl)pyrimidin-2-yl)amino)piperidin-1-yl) prop-2-en-1-one]
IC50 (ITK): ~1000 nM
IC50 (BTK): ~1000 nM

C=CC(=O)N1CCC[C@H](Nc2cc(CN3CCOCC3)cc(Nc3cc(Cl)[nH]n3)n2)C1 [Example 50, (S)-1-(3-(6-(5-chloro-1H-pyrazol-3-ylamino)-4-(morpholinomethyl)pyridin-2-ylamino)piperidin-1-yl) prop-2-en-1-one]
IC50 (ITK): ~1000 nM
IC50 (BTK): ~1000 nM

C=CC(=O)N1CCC[C@@H](Oc2cc(CN3CCOCC3)cc(Nc3ncc(C)s3)n2)C1 [Example 16, (R)-1-(3-((6-((5-methylthiazol-2-yl)amino)-4-(morpholinomethyl)pyridin-2-yl)oxy)piperidin-1-yl) prop-2-en-1-one]
IC50 (ITK): > 1000 nM
IC50 (BTK): 1.1 nM

C=CC(=O)N1CCC[C@H](Nc2cc(CN3CCOCC3)cc(Nc3cc[nH]n3)n2)C1 [Example 48, (S)-1-(3-(6-(1H-pyrazol-3-ylamino)-4-(morpholinomethyl)pyridin-2-ylamino)piperidin-1-yl) prop-2-en-1-one]
IC50 (ITK): ~1000 nM
IC50 (BTK): ~1000 nM

CC#CC(=O)N1CCC[C@@H](Nc2cc(CN3CCOCC3)cc(Nc3ncc(C)s3)n2)C1 [Example 13, (R)-1-(3-((6-((5-methylthiazol-2-yl)amino)-4-(morpholinomethyl)pyridin-2-yl)amino)piperidin-1-yl) but-2-yn-1-one]
IC50 (ITK): > 200 nM
IC50 (BTK): > 200 nM

C=CC(=O)N1CCC[C@H](Nc2cc(CN3CCOCC3)cc(Nc3ncccn3)n2)C1 [Example 54, (S)-1-(3-(4-(morpholinomethyl)-6-(pyrimidin-2-ylamino)pyridin-2-ylamino)piperidin-1-yl) prop-2-en-1-one]
IC50 (ITK): ~1000 nM
IC50 (BTK): ~1000 nM

C=CC(=O)NC1CCN(c2cc(CN3CCOCC3)cc(Nc3ncc(C)s3)n2)CC1 [Example 27, N-(1-(6-((5-methylthiazol-2-yl)amino)-4-(morpholinomethyl)pyridin-2-yl)piperidin-4-yl) acrylamide]
IC50 (ITK): 43.8 nM
IC50 (BTK): 85.2 nM

C=CC(=O)N1CCC(Nc2cc(CN3CCOCC3)cc(Nc3ncc(C)s3)n2)C1 (stereo not shown) [Example 2, 1-(3-((6-((5-methylthiazol-2-yl)amino)-4-(morpholinomethyl)pyridin-2-yl)amino)pyrrolidin-1-yl) prop-2-en-1-one]
IC50 (ITK): 2.6 nM
IC50 (BTK): 3.1 nM

CC#CC(=O)N1CCC[C@H](Nc2cc(OC3CCN(C)CC3)cc(Nc3ncc(C)s3)n2)C1 [Example 41, (S)-1-(3-((4-((1-methylpiperidin-4-yl)oxy)-6-((5-methylthiazol-2-yl)amino)pyridin-2-yl)amino)piperidin-1-yl) but-2-yn-1-one]
IC50 (ITK): 128 nM
IC50 (BTK): 9.5 nM

C=CC(=O)N1CCC[C@H](Nc2cc(CN3CCN(CCCN)CC3)cc(Nc3ncc(C)s3)n2)C1 [Example 47, (S)-1-(3-(4-((4-(3-aminopropyl)piperazin-1-yl)methyl)-6-(5-methylthiazol-2-vlamino)pyridin-2-vlamino)piperidin-1-yl) prop-2-en-1-one]
IC50 (ITK): 9 nM
IC50 (BTK): 6.1 nM

C=CC(=O)N1CCC[C@@H](Nc2cc(CN3CCOCC3)cc(Nc3ncc(C)s3)n2)C1 [Example 4, (R)-1-(3-((6-((5-methylthiazol-2-yl)amino)-4-(morpholinomethyl)pyridin-2-yl)amino)piperidin-1-yl) prop-2-en-1-one]
IC50 (ITK): 1.6 nM
IC50 (BTK): 0.4 nM

C=CC(=O)N1CCC[C@H](Nc2cc(CN3CCOCC3)cc(Nc3ncc(C(F)(F)F)s3)n2)C1 [Example 49, (S)-1-(3-(4-(morpholinomethyl)-6-(5-(trifluoromethyl)thiazol-2-ylamino)pyridin-2-ylamino)piperidin-1-yl) prop-2-en-1-one]
IC50 (ITK): 3 nM
IC50 (BTK): 2 nM

C=CC(=O)N1CCC[C@H](Oc2cc(CN3CCOCC3)cc(Nc3ncc(C)s3)n2)C1 [Example 15, (S)-1-(3-((6-((5-methylthiazol-2-yl)amino)-4-(morpholinomethyl)pyridin-2-yl)oxy)piperidin-1-yl) prop-2-en-1-one]
IC50 (ITK): 47.3 nM
IC50 (BTK): 2.3 nM

C=CC(=O)N1CCC[C@H](Nc2cc(Cc3ccccn3)cc(Nc3ncc(C)s3)n2)C1 [Example 37, (S)-1-(3-((6-((5-methylthiazol-2-yl)amino)-4-(pyridin-2-ylmethyl)pyridin-2-yl)amino)piperidin-1-yl) prop-2-en-1-one]
IC50 (ITK): 1.9 nM
IC50 (BTK): 3.2 nM

C=CC(=O)N1CC[C@H](Nc2nc(CN3CCOCC3)cc(Nc3ncc(C)s3)n2)C1 [Example 24, (S)-1-(3-((4-((5-methylthiazol-2-yl)amino)-6-(morpholinomethyl)pyrimidin-2-yl)amino)pyrrolidin-1-yl) prop-2-en-1-one]
IC50 (ITK): 2.3 nM
IC50 (BTK): 2.2 nM

C=CC(=O)N1CCC[C@H](Nc2nc(Nc3ncc(C)s3)cc(CN3CCOCC3)c2F)C1 [Example 52, (S)-1-(3-(3-fluoro-6-(5-methylthiazol-2-ylamino)-4-(morpholinomethyl)pyridin-2-ylamino)piperidin-1-yl) prop-2-en-1-one]
IC50 (ITK): ~1000 nM
IC50 (BTK): ~1000 nM

CC#CC(=O)N1CCC(Nc2cc(CN3CCOCC3)cc(Nc3ncc(C)s3)n2)CC1 [Example 19, 1-(4-((6-((5-methylthiazol-2-yl)amino)-4-(morpholinomethyl)pyridin-2-yl)amino)piperidin-1-yl) but-2-yn-1-one]
IC50 (BTK): 875 nM

CC#CC(=O)N1CCC[C@H](Nc2nc(CN3CCOCC3)cc(Nc3ncc(C)s3)n2)C1 [Example 23, (S)-1-(3-((4-((5-methylthiazol-2-yl)amino)-6-(morpholinomethyl)pyrimidin-2-yl)amino)piperidin-1-yl) but-2-yn-1-one]
IC50 (BTK): 36.6 nM
